Assay results taken from patent EP0415219A1, “ANF-Antagonist” (F. HOFFMANN-LA ROCHE AG, priority 1989, dated 1991).
Where a SMILES comes first, the peptide text is derived from it. Bridges are numbered along the chain shown (N, C = ends).

Assays:
[1] = system: SPF-Ratten ohne zentrale Reflexe ("pithed rats"); test: In vivo blood pressure in anaesthetised pithed SPF rats under angiotensin II infusion; settings: Angiotensin II 0,15 µg/kg/min, 1 mg/kg i.v. after bolus of 10 µg/kg ANF
Procedure: (§1) Für die in vivo Versuche wurden 20 Wochen alte spontanhypertensive Ratten (SHR) oder normotensive pathogen-freie (SPF) Ratten verwendet. In wache SHR wurde 2.5 µg/kg/min ANF infundiert, was den Blutdruck um 45 mm Hg senkte. Eine anschliessende Bolusgabe von 1 mg/kg ANF-Antagonist erhöhte den Blutduck wiederum auf den Ausgangswert von 220 mm Hg. Anästhesierten SPF-Ratten ohne zentrale Reflexe ("pithed rats") wurde Angiotensin II (0,15 µg/kg/min) infundiert, um den Blutdruck auf 100-110 mm Hg anzuheben. Dann wurde ein Bolus von 10 µg/kg ANF gegeben. was den Blutdruck um 20 mm Hg senkte. […] Diese Versuche zeigen, dass der Blutdruckanstieg unter dem ANF-Antagonisten nicht auf eine Aktivierung von symphatischen Reflexen, sondern auf die Wirkung eines ANF-Antagonisten zurückzuführen ist.

[2] = system: spontanhypertensive Ratten (SHR); test: In vivo blood pressure in conscious SHR under ANF infusion; settings: bolus 1 mg/kg after ANF infusion 2.5 µg/kg/min
Procedure: as §1

[3] = biological target: ANF Rezeptor (Membranpräparation von Rindernebennieren); test: Binding test: displacement of radiolabelled ANF from its receptor (membrane preparation of bovine adrenal glands); parameters: species or system Rind; settings: inhibition of ¹²⁵I-ANF (18,2 pM) binding, 24 h at 4°C; read-out: IC₅₀
Procedure: In einem Bindungstest nach Bürgisser et al. [Biochem. Biophys. Res. Comm. 133, 1201 (1985)] wurde die Verdrängung von radioaktiv-markiertem ANF von dessen Rezeptor durch den ANF-Antagonisten gemessen. Als Rezeptorpräparation wurde eine Membranpräparation von Rindernebennieren verwendet. Zu 100 µl dieser Präparation in 50 mM Tris/HCl, 500 mM MgCl₂, 1 mM EDTA. 0,5% Rinderserumalbumin und 1 mM o-Phenanthrolin, pH 7,6, wurden ¹²⁵I-ANF (20'000 cpm. 18,2 pM) in 145 µl dieses Puffers und der Ligand in 5 µl Dimethylsulfoxid gegeben. Diese Mischung wurde 24 Stunden bei 4°C inkubiert und gebundenes von freiem ANF durch schnelle Filtration über Whatman GF/C Glasfaserfilter abgetrennt. Nach dreimaligem Waschen der Filter mit obigem Puffer (3 x 4 ml) wurden die Filter zerschnitten und deren Radioaktivität im Gamma-Zähler gemessen. Die Inhibition der Bindung wurde quantitativ mit der IC₅₀ erfasst, worunter diejenige Konzentration an entsprechendem Liganden zu verstehen ist, bei der die Bindung von ¹²⁵I-ANF halbmaximal gehemmt wird. Tabelle

| Structure (SMILES) | Blutdruck nach intravenöser Gabe [1] | Blutdruck nach Bolusgabe (erhöht auf den Ausgangswert) [2] [mm Hg] | IC50 [3] [nM] |
| --- | --- | --- | --- |
| CC[C@H](C)[C@@H]1NC(=O)[C@H](Cc2ccccc2)NC(=O)CNC(=O)C[C@@H](C(=O)N[C@H](C(=O)N[C@@H](Cc2ccccc2)C(=O)NCC(=O)N[C@@H](Cc2c[nH]cn2)C(=O)N[C@@H](Cc2ccc(O)cc2)C(=O)N[C@@H](CO)C(=O)NCC(=O)N[C@@H](CC(=O)O)C(=O)N[C@@H](Cc2ccccc2)C(=O)O)[C@@H](C)CC)NC(=O)[C@H](CC(N)=O)NC(=O)CNC(=O)[C@H](Cc2c[nH]c3ccccc23)NC(=O)CNC1=O [ANF-Antagonist] (GFIGWGNDIFGHYSGDF-OH; lactam N-8; C-terminus assumed) | erhöhte den Blutdruck wiederum auf den Ausgangswert | 220 | 860 |
| CC[C@H](C)[C@@H]1NC(=O)[C@H](Cc2ccccc2)NC(=O)CNC(=O)C[C@@H](C(=O)N[C@H](C(=O)N[C@@H](Cc2ccccc2)C(=O)NCC(=O)N[C@@H](Cc2c[nH]cn2)C(=O)N[C@@H](Cc2ccc(O)cc2)C(=O)N[C@@H](CO)C(=O)NCC(=O)N[C@@H](CC(=O)OC)C(=O)N[C@@H](Cc2ccccc2)C(=O)OC)[C@@H](C)CC)NC(=O)[C@H](CC(N)=O)NC(=O)CNC(=O)[C@H](Cc2c[nH]c3ccccc23)NC(=O)CNC1=O [Dimethylester] (GFIGWGNDIFGHYSGD(OMe)F-OMe; lactam N-8) | – | – | 2500 |
